The values below come from US9549932B2, “2-(morpholin-4-yl)-1,7-naphthyridines” (BAYER PHARMA AKTIENGESELLSCHAFT, priority 2014, dated 2017).

Where a name gives a salt, the structure may show the parent alone. Read-outs that look alike come from different tables or passages of the source.

The target of the assay is full-length human ATR protein (Homo sapiens (Human), UniProt Q13535). As to the kind of experiment: Binding assay ATR (TR-FRET tracer displacement). The conditions noted are these: TR-FRET. The text has this:
To determine of binding activity of the test compounds, full-length human ATR protein was expressed and purified together with ATRIP as described above. Furthermore, a fluorescently labelled compound (either tracer A or B as described above) was used as a tracer molecule. Detection of the binding event of the tracer was achieved by time-resolved fluorescence energy transfer (TR-FRET). We used an anti-GST-Terbium antibody (CisBio) that binds to the GST-tag at the N-terminus of ATR-kinase. […] Displacement of the fluorescent tracer by a test compound leads to a reduction of the TR-FRET-signal.
For the assay 50 nl of a 100-fold concentrated solution of the test compound in DMSO was pipetted into a black low volume 384well microtiter plate (MTP, Greiner Bio-One, Frickenhausen, Germany). […] The ATR-working solution was incubated for 30 min at 22° C. prior to dispensing to pre-form the complex of antiGST-Tb+GST-ATR+ATRIP. Then, 3 μl of the ATR-working solution were added to the test compound and the mixture was incubated for 10 min at 22° C. to allow pre-binding of the test compounds to ATR/ATRIP. Then, 2 μl of a 100 nM solution of either tracer A or B in assay buffer were added to the ATR-working solution. The resulting mixture was incubated for 30 min at 22° C. […] The dilution series were prepared separately before the assay on the level of the 100 fold concentrated solutions in DMSO by serial 1:3.4 dilutions in duplicate values for each concentration. IC50 values were calculated by a 4 parameter fit using standard software (GraphPad prism or equivalent).
On the technique in general: In TR-FRET formats the signal depends on donor and acceptor labels being close together.

Setting [1] is: tracer A, read-out: ATR binding (tracer A) IC50.
[2] abbreviates: tracer B, read-out: ATR binding (tracer B) IC50.

Sequence of full-length human ATR protein (Q13535 other isoform, or with tags, fused parts or gaps): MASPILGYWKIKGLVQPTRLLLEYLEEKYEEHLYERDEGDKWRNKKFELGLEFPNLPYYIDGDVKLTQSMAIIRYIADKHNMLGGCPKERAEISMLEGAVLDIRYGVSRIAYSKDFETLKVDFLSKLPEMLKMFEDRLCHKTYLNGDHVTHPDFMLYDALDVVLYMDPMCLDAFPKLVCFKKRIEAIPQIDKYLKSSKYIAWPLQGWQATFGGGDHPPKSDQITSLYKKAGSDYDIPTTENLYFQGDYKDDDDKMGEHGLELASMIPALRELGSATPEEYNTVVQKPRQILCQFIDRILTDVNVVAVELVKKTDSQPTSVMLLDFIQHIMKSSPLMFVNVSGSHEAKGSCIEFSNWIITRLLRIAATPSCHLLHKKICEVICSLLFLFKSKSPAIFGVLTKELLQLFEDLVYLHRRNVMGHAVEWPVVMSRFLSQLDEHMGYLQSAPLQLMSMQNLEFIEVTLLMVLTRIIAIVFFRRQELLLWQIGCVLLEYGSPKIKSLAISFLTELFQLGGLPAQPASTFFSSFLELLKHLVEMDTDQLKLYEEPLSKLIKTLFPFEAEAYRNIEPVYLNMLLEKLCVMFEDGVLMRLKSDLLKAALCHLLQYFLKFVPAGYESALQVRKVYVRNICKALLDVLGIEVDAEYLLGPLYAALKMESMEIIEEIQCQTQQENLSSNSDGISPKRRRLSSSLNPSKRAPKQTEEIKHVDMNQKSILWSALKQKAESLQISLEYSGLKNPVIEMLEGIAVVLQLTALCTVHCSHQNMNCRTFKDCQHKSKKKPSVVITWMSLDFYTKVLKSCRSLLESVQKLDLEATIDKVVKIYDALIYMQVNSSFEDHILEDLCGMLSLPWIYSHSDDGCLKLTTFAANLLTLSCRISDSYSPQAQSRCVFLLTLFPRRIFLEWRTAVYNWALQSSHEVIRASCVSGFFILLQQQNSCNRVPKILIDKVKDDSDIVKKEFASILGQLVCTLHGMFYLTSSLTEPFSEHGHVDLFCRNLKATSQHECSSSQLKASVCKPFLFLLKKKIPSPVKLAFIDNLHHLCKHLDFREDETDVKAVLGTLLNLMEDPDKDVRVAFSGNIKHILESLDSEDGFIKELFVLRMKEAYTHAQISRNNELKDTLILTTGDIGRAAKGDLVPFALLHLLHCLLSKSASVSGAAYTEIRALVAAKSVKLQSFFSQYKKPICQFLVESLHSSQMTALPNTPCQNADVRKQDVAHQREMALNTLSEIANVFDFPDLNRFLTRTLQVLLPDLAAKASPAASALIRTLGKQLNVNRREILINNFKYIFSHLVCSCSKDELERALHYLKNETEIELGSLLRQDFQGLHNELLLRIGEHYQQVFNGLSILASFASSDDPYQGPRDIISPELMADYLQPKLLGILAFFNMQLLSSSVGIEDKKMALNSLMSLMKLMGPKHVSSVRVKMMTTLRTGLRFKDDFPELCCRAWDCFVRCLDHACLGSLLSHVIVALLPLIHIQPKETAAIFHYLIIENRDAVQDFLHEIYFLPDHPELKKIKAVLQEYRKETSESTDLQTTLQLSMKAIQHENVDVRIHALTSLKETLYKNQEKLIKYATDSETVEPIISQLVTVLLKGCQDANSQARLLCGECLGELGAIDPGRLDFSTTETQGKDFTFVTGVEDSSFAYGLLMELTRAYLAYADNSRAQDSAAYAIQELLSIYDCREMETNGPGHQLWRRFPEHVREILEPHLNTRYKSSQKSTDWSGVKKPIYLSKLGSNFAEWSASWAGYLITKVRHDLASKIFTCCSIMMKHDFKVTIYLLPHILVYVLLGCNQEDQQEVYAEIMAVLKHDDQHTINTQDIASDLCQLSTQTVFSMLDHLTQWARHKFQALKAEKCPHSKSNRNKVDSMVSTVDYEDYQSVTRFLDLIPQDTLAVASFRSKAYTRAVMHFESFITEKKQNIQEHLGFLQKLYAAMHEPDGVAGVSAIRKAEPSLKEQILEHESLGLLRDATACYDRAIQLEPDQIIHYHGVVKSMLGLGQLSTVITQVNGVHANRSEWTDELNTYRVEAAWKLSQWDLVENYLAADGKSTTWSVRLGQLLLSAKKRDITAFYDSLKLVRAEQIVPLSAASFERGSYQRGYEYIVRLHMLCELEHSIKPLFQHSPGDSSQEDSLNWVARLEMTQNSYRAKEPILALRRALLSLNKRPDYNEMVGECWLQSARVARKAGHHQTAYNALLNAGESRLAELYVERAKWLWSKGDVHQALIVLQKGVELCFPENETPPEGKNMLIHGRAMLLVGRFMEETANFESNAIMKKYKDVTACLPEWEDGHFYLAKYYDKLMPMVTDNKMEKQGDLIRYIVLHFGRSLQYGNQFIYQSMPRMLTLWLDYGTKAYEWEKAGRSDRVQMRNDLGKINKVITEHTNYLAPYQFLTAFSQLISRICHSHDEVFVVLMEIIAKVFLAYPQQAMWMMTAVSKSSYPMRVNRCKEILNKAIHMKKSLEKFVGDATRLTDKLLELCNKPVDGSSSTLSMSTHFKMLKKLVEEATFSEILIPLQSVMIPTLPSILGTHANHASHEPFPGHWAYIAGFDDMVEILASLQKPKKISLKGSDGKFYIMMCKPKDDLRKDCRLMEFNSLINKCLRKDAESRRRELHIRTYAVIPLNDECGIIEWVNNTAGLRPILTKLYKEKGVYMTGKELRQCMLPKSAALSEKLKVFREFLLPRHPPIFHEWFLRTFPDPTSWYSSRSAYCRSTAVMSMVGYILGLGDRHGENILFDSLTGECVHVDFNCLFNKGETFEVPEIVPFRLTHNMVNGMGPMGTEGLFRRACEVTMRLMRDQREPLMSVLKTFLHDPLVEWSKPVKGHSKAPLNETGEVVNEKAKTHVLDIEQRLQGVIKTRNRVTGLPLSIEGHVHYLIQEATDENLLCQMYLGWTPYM
Sequence of full-length human ATR protein (Q8WXE1 other isoform, or with tags, fused parts or gaps partner): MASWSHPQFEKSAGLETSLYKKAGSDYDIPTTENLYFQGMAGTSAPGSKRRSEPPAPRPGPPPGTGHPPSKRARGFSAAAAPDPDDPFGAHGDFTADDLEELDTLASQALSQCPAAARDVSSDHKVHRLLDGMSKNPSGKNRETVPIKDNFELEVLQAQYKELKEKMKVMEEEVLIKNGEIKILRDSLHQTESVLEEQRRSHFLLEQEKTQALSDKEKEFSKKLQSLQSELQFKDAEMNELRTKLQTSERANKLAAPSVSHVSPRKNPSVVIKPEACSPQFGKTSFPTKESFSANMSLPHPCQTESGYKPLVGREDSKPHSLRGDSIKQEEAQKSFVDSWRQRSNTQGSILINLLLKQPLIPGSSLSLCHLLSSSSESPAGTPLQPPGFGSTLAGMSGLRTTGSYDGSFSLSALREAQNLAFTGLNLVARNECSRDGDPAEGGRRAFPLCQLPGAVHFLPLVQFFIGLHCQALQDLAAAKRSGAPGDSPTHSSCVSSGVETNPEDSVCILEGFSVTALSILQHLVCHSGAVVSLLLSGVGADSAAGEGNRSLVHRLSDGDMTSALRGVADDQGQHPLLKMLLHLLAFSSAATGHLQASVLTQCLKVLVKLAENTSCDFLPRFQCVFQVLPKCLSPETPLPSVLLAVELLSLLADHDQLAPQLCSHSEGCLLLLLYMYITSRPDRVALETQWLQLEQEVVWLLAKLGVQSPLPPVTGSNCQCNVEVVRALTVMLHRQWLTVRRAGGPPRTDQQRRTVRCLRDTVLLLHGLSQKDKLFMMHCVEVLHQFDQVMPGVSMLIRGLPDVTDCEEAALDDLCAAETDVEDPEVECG

One may read the IC50 as the concentration that gives 50% inhibition. For the compound `CC(C)Oc1cc(N2[C@H](C)COC[C@H]2C)nc2c(-c3ccn[nH]3)nccc12` [Example 59, 2-[(3R,5R)-3,5-dimethylmorpholin-4-yl]-4-isopropoxy-8-(1H-pyrazol-5-yl)-1,7-naphthyridine], the concentration for half-maximal inhibition (IC50) is, setting by setting: under setting [1], 730 nM; under setting [2], 1250 nM.
With `c1cc2c(C3CCOCC3)cc(N3CCOCC3)nc2c(-c2cc[nH]n2)n1` [Example 60, 2-(morpholin-4-yl)-8-(1H-pyrazol-5-yl)-4-(tetrahydro-2H-pyran-4-yl)-1,7-naphthyridine], the IC50 stood at 24.1 nM under setting [1] and 15.7 nM under setting [2].
On to `c1cc2ccc(N3CCOCC3)nc2c(-c2cc[nH]n2)n1` [Example 61, 2-(morpholin-4-yl)-8-(1H-pyrazol-3-yl)-[1,7]naphthyridine hydrochloride], for which the 50% inhibitory concentration (IC50) under setting [1] worked out at 709 nM and the half-inhibitory concentration (IC50) under setting [2] is 503 nM.
On to `Clc1cc(N2CCOCC2)nc2c(-c3cc[nH]n3)nccc12` [Example 62, 4-chloro-2-morpholin-4-yl-8-(1H-pyrazol-3-yl)-[1,7]naphthyridine], for which the IC50 runs as follows: under setting [1], 997 nM; under setting [2], 707 nM.
As for `CSc1cc(N2CCOC[C@H]2C)nc2c(-c3ccn[nH]3)nccc12` [Example 63, 2-[(3R)-3-methylmorpholin-4-yl]-4-(methylsulfanyl)-8-(1H-pyrazol-5-yl)-1,7-naphthyridine], the half-inhibitory concentration (IC50) was found to be 80.7 nM under setting [1] and 30.7 nM under setting [2].
For `C[C@@H]1COCCN1c1cc(N=S2(=O)CCOCC2)c2ccnc(-c3ccn[nH]3)c2n1` [Example 64, N-{2-[(3R)-3-methylmorpholin-4-yl]-8-(1H-pyrazol-5-yl)-1,7-naphthyridin-4-yl}-1,4λ^4-oxathian-4-imine 4-oxide], the concentration for half-maximal inhibition (IC50) under setting [1] amounted to 27.4 nM.
`CS(C)(=O)=Nc1cc(N2CCOCC2)nc2c(-c3ccn[nH]3)nccc12` [Example 65, 4-{[dimethyl(oxido)-λ^6-sulfanylidene]amino}-2-(morpholin-4-yl)-8-(1H-pyrazol-5-yl)-1,7-naphthyridine]: the half-inhibitory concentration (IC50) came out at 335 nM under setting [1] and 276 nM under setting [2].
Turning to `C[C@@H]1COCCN1c1cc(N2CCNCC2)c2ccnc(-c3ccn[nH]3)c2n1` [Example 66, 2-[(3R)-3-methylmorpholin-4-yl]-4-(piperazin-1-yl)-8-(1H-pyrazol-5-yl)-1,7-naphthyridine], the concentration for half-maximal inhibition (IC50) under setting [1] was 87.2 nM.
As to `CC(C)Oc1cc(N2CCOC[C@@H]2C)nc2c(-c3cc[nH]n3)nccc12` [Example 67, 4-isopropoxy-2-((S)-3-methylmorpholin-4-yl)-8-(1H-pyrazol-3-yl)-[1,7]naphthyridine], the IC50 under setting [1] came to 1000 nM and the IC50 under setting [2] came out at 1270 nM.
Regarding `CC(C)Oc1cc(N2CCOCC2)nc2c(-c3cc[nH]c3)nccc12` [Example 68, 2-(morpholin-4-yl)-4-(propan-2-yloxy)-8-(1H-pyrrol-3-yl)-1,7-naphthyridine], the concentration for half-maximal inhibition (IC50) is, setting by setting: under setting [1], 589 nM; under setting [2], 472 nM.
For the compound `CCn1nccc1-c1cc(N2CCOC[C@H]2C)nc2c(-c3ccn[nH]3)nccc12` [Example 69, 4-(1-ethyl-1H-pyrazol-5-yl)-2-[(3R)-3-methylmorpholin-4-yl]-8-(1H-pyrazol-5-yl)-1,7-naphthyridine], the IC50 under setting [1] came to 5.34 nM.
For `C[C@@H]1COCCN1c1cc(-c2cncn2C)c2ccnc(-c3ccn[nH]3)c2n1` [Example 70, 4-(1-methyl-1H-imidazol-5-yl)-2-[(3R)-3-methylmorpholin-4-yl]-8-(1H-pyrazol-5-yl)-1,7-naphthyridine], the 50% inhibitory concentration (IC50) under setting [1] is 5.17 nM.
With `C[C@@H]1COCCN1c1cc(-c2ccccc2N)c2ccnc(-c3ccn[nH]3)c2n1` [Example 71, 2-{2-[(3R)-3-methylmorpholin-4-yl]-8-(1H-pyrazol-5-yl)-1,7-naphthyridin-4-yl]aniline], under setting [1], the half-inhibitory concentration (IC50) was found to be 5.65 nM.
In the case of `C[C@@H]1COCCN1c1cc(-c2cccc(F)c2F)c2ccnc(-c3ccn[nH]3)c2n1` [Example 72, 4-(2,3-difluorophenyl)-2-[(3R)-3-methylmorpholin-4-yl]-8-(1H-pyrazol-5-yl)-1,7-naphthyridine], the half-inhibitory concentration (IC50) under setting [1] turned out to be 6.33 nM.
In the case of `Cc1nc(S(C)(=O)=O)ccc1-c1cc(N2CCOC[C@H]2C)nc2c(-c3ccn[nH]3)nccc12` [Example 73, 4-[2-methyl-6-(methylsulfonyl)pyridin-3-yl]-2-[(3R)-3-methylmorpholin-4-yl]-8-(1H-pyrazol-5-yl)-1,7-naphthyridine], the half-inhibitory concentration (IC50) under setting [1] stood at 6.71 nM.
In the case of `C[C@@H]1COCCN1c1cc(-c2ccc(S(C)(=O)=O)cc2F)c2ccnc(-c3ccn[nH]3)c2n1` [Example 74, 4-[2-fluoro-4-(methylsulfonyl)phenyl]-2-[(3R)-3-methylmorpholin-4-yl]-8-(1H-pyrazol-5-yl)-1,7-naphthyridine], under setting [1], the IC50 is 7.1 nM.
Turning to `C[C@@H]1COCCN1c1cc(-c2cc(F)ccc2N)c2ccnc(-c3ccn[nH]3)c2n1` [Example 75, 4-fluoro-2-[2-[(3R)-3-methylmorpholin-4-yl]-8-(1H-pyrazol-5-yl)-1,7-naphthyridin-4-yl]aniline], the IC50 under setting [1] turned out to be 6.97 nM.
As for `C[C@@H]1COCCN1c1cc(-c2cncn2Cc2ccccc2)c2ccnc(-c3ccn[nH]3)c2n1` [Example 76, 4-(1-benzyl-1H-imidazol-5-yl)-2-[(3R)-3-methylmorpholin-4-yl]-8-(1H-pyrazol-5-yl)-1,7-naphthyridine], the concentration for half-maximal inhibition (IC50) under setting [1] came out at 8.91 nM.
As to `C[C@@H]1COCCN1c1cc(-c2ccccc2F)c2ccnc(-c3ccn[nH]3)c2n1` [Example 77, 4-(2-fluorophenyl)-2-[(3R)-3-methylmorpholin-4-yl]-8-(1H-pyrazol-5-yl)-1,7-naphthyridine], under setting [1], the half-maximal inhibitory concentration (IC50) was found to be 8.92 nM.
On to `Cc1ncc(-c2cc(N3CCOC[C@H]3C)nc3c(-c4ccn[nH]4)nccc23)s1` [Example 78, 2-[(3R)-3-methylmorpholin-4-yl]-4-(2-methyl-1,3-thiazol-5-yl)-8-(1H-pyrazol-5-yl)-1,7-naphthyridine], for which, under setting [1], the half-inhibitory concentration (IC50) stood at 11 nM.
`Cc1cc(S(C)(=O)=O)ncc1-c1cc(N2CCOC[C@H]2C)nc2c(-c3ccn[nH]3)nccc12` [Example 79, 4-[4-methyl-6-(methylsulfonyl)pyridin-3-yl]-2-[(3R)-3-methylmorpholin-4-yl]-8-(1H-pyrazol-5-yl)-1,7-naphthyridine]: the IC50 under setting [1] stood at 12 nM.
In the case of `C[C@@H]1COCCN1c1cc(-c2ccnn2C2CC2)c2ccnc(-c3ccn[nH]3)c2n1` [Example 80, 4-(1-cyclopropyl-1H-pyrazol-5-yl)-2-[(3R)-3-methylmorpholin-4-yl]-8-(1H-pyrazol-5-yl)-1,7-naphthyridine], the IC50 under setting [1] was determined as 12.1 nM.
As for `C[C@@H]1COCCN1c1cc(-c2ccc(N3CCNCC3)cc2F)c2ccnc(-c3ccn[nH]3)c2n1` [Example 81, 4-[2-fluoro-4-(piperazin-1-yl)phenyl]-2-[(3R)-3-methylmorpholin-4-yl]-8-(1H-pyrazol-5-yl)-1,7-naphthyridine], the IC50 under setting [1] was 14.3 nM.
Regarding `C[C@@H]1COCCN1c1cc(N2CCN(S(C)(=O)=O)CC2)c2ccnc(-c3ccn[nH]3)c2n1` [Example 82, 2-[(3R)-3-methylmorpholin-4-yl]-4-[4-(methylsulfonyl)piperazin-1-yl]-8-(1H-pyrazol-5-yl)-1,7-naphthyridine], the IC50 under setting [1] was 4.9 nM.
In the case of `C[C@@H]1COCCN1c1cc(N(C)CC(C)(C)C)c2ccnc(-c3ccn[nH]3)c2n1` [Example 83, N-(2,2-dimethylpropyl)-N-methyl-2-[(3R)-3-methylmorpholin-4-yl]-8-(1H-pyrazol-5-yl)-1,7-naphthyridin-4-amine], the 50% inhibitory concentration (IC50) under setting [1] was 5.38 nM.
As for `C[C@@H]1COCCN1c1cc(N2CCC(CO)CC2)c2ccnc(-c3ccn[nH]3)c2n1` [Example 84, (1-{2-[(3R)-3-methylmorpholin-4-yl]-8-(1H-pyrazol-5-yl)-1,7-naphthyridin-4-yl}piperidin-4-yl)methanol], the 50% inhibitory concentration (IC50) under setting [1] amounted to 6.6 nM.
Turning to `C[C@@H]1COCCN1c1cc(N(C)C2CC2)c2ccnc(-c3ccn[nH]3)c2n1` [Example 85, N-cyclopropyl-N-methyl-2-[(3R)-3-methylmorpholin-4-yl]-8-(1H-pyrazol-5-yl)-1,7-naphthyridin-4-amine], under setting [1], the concentration for half-maximal inhibition (IC50) came out at 11.9 nM.
Consider `C[C@@H]1COCCN1c1cc(N2CCn3ccnc3C2)c2ccnc(-c3ccn[nH]3)c2n1` [Example 86, 4-(5,6-dihydroimidazo[1,2-a]pyrazin-7(8H)-yl)-2-[(3R)-3-methylmorpholin-4-yl]-8-(1H-pyrazol-5-yl)-1,7-naphthyridine], for which the half-maximal inhibitory concentration (IC50) under setting [1] is 10.9 nM.
For `C[C@@H]1COCCN1c1cc(N(C)c2ccc(F)cc2)c2ccnc(-c3ccn[nH]3)c2n1` [Example 87, N-(4-fluorophenyl)-N-methyl-2-[(3R)-3-methylmorpholin-4-yl]-8-(1H-pyrazol-5-yl)-1,7-naphthyridin-4-amine], the half-maximal inhibitory concentration (IC50) under setting [1] was 8.71 nM.
On to `Cc1ccc(-c2cc(N3CCOC[C@H]3C)nc3c(-c4ccn[nH]4)nccc23)cn1` [Example 88, 2-[(3R)-3-methylmorpholin-4-yl]-4-(6-methylpyridin-3-yl)-8-(1H-pyrazol-5-yl)-1,7-naphthyridine], for which the IC50 under setting [1] worked out at 15.3 nM.
With `C[C@@H]1COCCN1c1cc(-c2cccnc2F)c2ccnc(-c3ccn[nH]3)c2n1` [Example 89, 4-(2-fluoropyridin-3-yl)-2-[(3R)-3-methylmorpholin-4-yl]-8-(1H-pyrazol-5-yl)-1,7-naphthyridine], the 50% inhibitory concentration (IC50) under setting [1] is 8.11 nM.
